In paper PMC11510156, “Rutin and Physalis peruviana Extract: Population Pharmacokinetics in New Zealand Rabbits” (Pharmaceutics, 2024):

Columns and labels:
[1] = Noncompartmental PK of rutin after intravenous administration of pure rutin or P. peruviana extract; assay type: in vivo, New Zealand White rabbits
Description: (§1) Twenty male New Zealand White rabbits were obtained from Sentagro E.A.T (Cachipay, Cundinamarca, Colombia), who certificated their origin and traceability. The animals were between 9 and 10 weeks old, weighing between 1.8 and 2.2 kg. They were allowed to acclimate for at least 5 days under constant temperature conditions (22 ± 1 °C), with light/dark cycles of 12 h, at the animal facility of the Department of Pharmacy of the Universidad Nacional de Colombia (UNAL), where the experiments were conducted. They were provided with water and food ad libitum until 12 h prior to the experiment, when they were fasted. The study protocol was approved by the ethics committee of the science faculty of the UNAL (Act 06, 2015, project 40831, 22 June 2015).
(§2) Rabbits were divided into four groups to receive either pure rutin or P. peruviana extract intravenously (i.v.) or orally (p.o.). The dose of rutin i.v. was set at 0.37 mg/kg, based on the highest quantity of the compound able to dissolve in 1 mL of the diluent used. The dose of extract i.v. was 100 mg/kg, a reference dose for animal experimentation in our group, which also allowed the solubilization of rutin in the extract within the administration volume. Oral rutin was administrated at a dose of 100 mg/kg, and oral extract was administrated at a dose of 500 mg/kg, which is an active dose from prior experiments. Based on the rutin content in the extract, the doses of extract used were equivalent to 1.48 mg/kg and 7.4 mg/kg of rutin for the i.v. and p.o. experiments, respectively.
(§3) For intravenous administration, solutions of rutin in sodium chloride solution (0.9% NaCl) were prepared at a concentration of 0.74 mg/mL, using DMSO (<0.1% of the final volume) to dissolve the compound. Meanwhile, the extract was directly dissolved in 0.9% NaCl at a concentration of 200 mg/mL. For oral administration, pure rutin and the extract were suspended in water near the time of the experiment to achieve concentrations in suspension of 200 and 1000 mg/mL, respectively. Vortexing and sonication were applied 3–4 times for 15 min each to all preparations. Each animal received 0.5 mL/kg of the treatment via the marginal ear vein (i.v.) or by oral gavage (p.o.).
(§4) Samples of blood (approximately 250 µL) were withdrawn from the marginal ear vein and collected in heparinized tubes at various time points. For experiments with i.v. administration, sampling was conducted at times 0, 0.083, 0.166, 0.333, 0.5, 0.75, 1, 1.5, 2, 3, 4, 6, 8, 12, and 24 h. For experiments with p.o. administration, sampling was performed at times 0, 0.083, 0.25, […], 0.75, 1, 2, 3, 4, 6, 8, 12, 24, and 48 h (Figure 1). The blood samples were then centrifuged at 3200× g and at 4 °C for 15 min to separate plasma, which was transferred to a new tube. The plasma was promptly acidified to pH 4 using 0.5 µL of 42.5% formic acid and then frozen at −80 °C until further analysis.
(§5) The quantification of analytes was carried out using a validated UHPLC-UV method on a Chromaster RS chromatograph (Hitachi, Tokyo, Japan). Briefly, plasma samples (100 µL) were supplemented with the internal standard, chrysin (1000 ng/mL), and divided into two tubes. One tube was immediately extracted and injected into the chromatographic system to quantify rutin. The plasma in the other tube first underwent a deconjugation reaction with 120 Fishman units of a mixture of the enzymes β-glucuronidase/arylsulfatase at pH 5.5 and 37 °C for 30 min. The product of the reaction, Quer, was also quantified, representing rutin metabolites Q3OG and Q3OS. The analytes in the plasma samples, rutin and Quer, were extracted using the protein precipitation method with twice the volume of methanol; proteins were then separated by centrifugation at 1200× g and 4 °C for 15 min, and the supernatant was used for instrumental analysis.
(§6) Concentrations–time data were tabulated and processed using MonolixSuite™ 2024R1 (Lixoft®, Paris, France). […]

[2] = Noncompartmental PK of rutin after oral administration of pure rutin or P. peruviana extract; assay type: in vivo, New Zealand White rabbits
Description: as §1, §2, §3, §4, §5, §6

[3] = Population PK model of rutin after i.v. administration (two-compartment, first-order elimination); assay type: in vivo, New Zealand White rabbits
Description: PopPK analysis was performed using the Monolix® module of the MonolixSuite™. Two models were established, one for rutin after i.v. administration of the treatments, and one for Quer, produced by deconjugation of Q3OG and Q3OS, after p.o. administration of the treatments. Structural models with one or two compartments and first-order elimination were assessed, incorporating a double first-order absorption for p.o. experiments. An analysis of covariate was conducted, using the source of rutin as categorical covariate (pure compound or extract), which was incorporated into the model if statistically significant (p < 0.05 for Pearson’s and Wald tests with stochastic approximation). Correlations between random effects of the parameters were also examined and included in the model when significant (p < 0.05 for t-test). The final model, along with the residual error model, was chosen based on criteria including individual fit plots, Akaike’s information criteria (AIC) values, observation-versus-prediction plot analysis, precision of estimated parameters, and evaluation of residual distribution. The variability on fixed-effect model parameters was described by Equation (4):(4) Pi=Ppop+β+η(i,p), where Pi is the value of the individual PK parameter, Ppop is the value of the population PK parameter, β represents the variability due to the covariate extract if significant, and η is the individual deviation with respect to the population. Models were parametrized in micro-constants, i.e., elimination rate constant (k), distribution rate constant from compartment 1 to compartment 2 (k12), and distribution rate constant from compartment 2 to compartment 1 (k21). When necessary, Cl was calculated as follows: (5) Cl=k×V, where V is the volume of distribution of first compartment. The model was internally validated through the visual predictive check (VPC) with 1000 simulated data points. Validation of structural, variability, and covariate models was considered achieved if the observed percentiles remained within the corresponding prediction intervals estimated across all simulated data and computed with a level of 90%. In addition, the parameter uncertainty was assayed by bootstrap analysis using 1000 runs. The model was considered stable, robust, and accurate if the mean parameters of the model were close to those estimated via bootstrap and fell within the 95% confidence interval (CI 95%).

[4] = Simple allometry prediction of human V and Cl of rutin; parameters: species or system humans
Source text: Individual pharmacokinetics parameters estimated by PopPK analysis in this study, along with those from a previous study conducted by the group in Wistar rats, were used to extrapolate V and Cl to humans using the simple allometry Equation (6):(6) Y=a×W^b, where Y is the PK parameter in humans, W is the human weight, typically set at 70 kg, and a and b are the coefficient and the exponent of scaling, respectively. These last two values are obtained from the relationship between the PK parameter and body weight across different species. Theoretically, b is fixed to 0.75 for Cl and 1.0 for Vd, although it can vary depending on the drug and population under study.

[5] = parameters: method as in PMID 33921404; details: rutin; popPK, Wistar rats; cited from earlier work
[6] = parameters: method as in PMID 32162346; details: low solubility and low permeability; cited from earlier work
[7] = male, New Zealand White, rabbit, plasma, iv, rutin, pure rutin 0.37 mg/kg, extract equivalent to 1.48 mg/kg of rutin, NCA, mean ± SD, n = 5
[8] = rutin, i.v., pure rutin 0.37 mg/kg, extract equivalent to 1.48 mg/kg of rutin, NCA, mean ± SD, n = 5
[9] = male, New Zealand White, rabbit, plasma, po, rutin, pure rutin 100 mg/kg, extract equivalent to 7.4 mg/kg of rutin, NCA, mean ± SD, n = 5
[10] = male, New Zealand White, rabbit, po, rutin in plasma, pure rutin 100 mg/kg, extract equivalent to 7.4 mg/kg of rutin, NCA, mean ± SD, n = 5
[11] = rutin, p.o., pure rutin 100 mg/kg, extract equivalent to 7.4 mg/kg of rutin, NCA, mean ± SD, n = 5

In the case of `C[C@@H]1O[C@@H](OC[C@H]2O[C@@H](Oc3c(-c4ccc(O)c(O)c4)oc4cc(O)cc(O)c4c3=O)[C@H](O)[C@@H](O)[C@@H]2O)[C@H](O)[C@H](O)[C@H]1O` [Pure Rutin, quercetin-3-O-rutinoside], the “time post-dosage up to which rutin was quantified” value ([1]; i.v.) is reported as “up to 6 h”, the “rutin plasma level, upper end of quantified range” value ([1]; i.v., mean ± SEM) is reported as 4960 ± 340 ng/mL and the AUC(0-inf) ([1]; male, New Zealand White, rabbit, iv, rutin in plasma, pure rutin 0.37 mg/kg, extract equivalent to 1.48 mg/kg of rutin, NCA, mean ± SD, n = 5) is reported as 4740 ± 814 ng·h/mL. For the same compound, the Vd ([1]; male, New Zealand White, rabbit, plasma, iv, 0.37 mg/kg, rutin, i.v., pure rutin 0.37 mg/kg, extract equivalent to 1.48 mg/kg of rutin, NCA, mean ± SD, n = 5, read-out: Vss) was 0.29 ± 0.053 L/kg, the Vd ([1]; male, New Zealand White, rabbit, plasma, iv, 0.37 mg/kg, rutin, i.v., pure rutin 0.37 mg/kg, extract equivalent to 1.48 mg/kg of rutin, NCA, mean ± SD, n = 5, read-out: Vz) was 0.084 ± 0.028 L/kg and the concentration at 6 h ([1]; male, New Zealand White, rabbit, plasma, iv, 0.37 mg/kg, i.v., mean ± SEM, at last quantified time, read-out: rutin plasma level, lower end of quantified range) was 105 ± 24 ng/mL. It also gave a half-life ([1]; male, New Zealand White, rabbit, plasma, iv, rutin, i.v., pure rutin 0.37 mg/kg, extract equivalent to 1.48 mg/kg of rutin, NCA, mean ± SD, n = 5, read-out: t1/2 (terminal half-life) (converted)) of 0.79 ± 0.381 h, a k el ([1]; male, New Zealand White, rabbit, plasma, iv, rutin, i.v., pure rutin 0.37 mg/kg, extract equivalent to 1.48 mg/kg of rutin, NCA, mean ± SD, n = 5, read-out: λz (converted)) of 0.000294 s⁻¹ and an MRT [1, 7] of 3.63 ± 0.163 h. The clearance [1, 7] was 1.32 mL/min/kg, the “Cp^0 (plasma concentration at zero time)” value ([1]; rutin in plasma, i.v., pure rutin 0.37 mg/kg, extract equivalent to 1.48 mg/kg of rutin, NCA, mean ± SD, n = 5) was 4960.02 ± 760.234 ng/mL and the “AUC0–∞/dose” value [1, 8] was 12.90 ± 2.214 h/L/kg. For the same compound, the “Cp^0/dose” value [1, 8] was 13.49 ± 2.068 L⁻¹ kg⁻¹, the bioavailability ([2]; male, New Zealand White, rabbit, plasma, po, p.o. vs i.v., pure rutin 100 mg/kg, extract equivalent to 7.4 mg/kg of rutin, read-out: F (absolute bioavailability of rutin)) was 0.6% and the Vd/F ([2]; male, New Zealand White, rabbit, plasma, po, rutin, p.o., pure rutin 100 mg/kg, extract equivalent to 7.4 mg/kg of rutin, NCA, mean ± SD, n = 5, read-out: Vz/F) was 59.1 ± 11.4 L/kg. For the same compound, the k el ([2]; male, New Zealand White, rabbit, plasma, po, rutin, p.o., pure rutin 100 mg/kg, extract equivalent to 7.4 mg/kg of rutin, NCA, mean ± SD, n = 5, read-out: λz (converted)) was 6.5e-05 s⁻¹, the CL/F [2, 9] was 226 mL/min/kg and the MRT [2, 9] was 11.8 ± 0.916 h. For the same compound, the AUC(0-inf) [2, 10] was 7790 ± 2110 ng·h/mL, the Cmax [2, 10] was 1170 ± 371 ng/mL and the Tmax [2, 10] was 0.75 h. The “time of second peak of rutin plasma concentration (double peaks)” value ([2]; p.o., Cmax here for the extract) was 4.0 h, the “time of first peak of rutin plasma concentration (double peaks)” value ([2]; p.o., Cmax here for the pure compound) was 0.75 h and the “AUC0–∞/dose” value [2, 11] was 0.078 ± 0.021 h/L/kg. The Cmax/dose [2, 11] was 0.012 ± 0.004 L⁻¹ kg⁻¹, the clearance ([3]; New Zealand White, rabbit, plasma, intravenous, 0.37 mg/kg, popPK individual parameters, Cl = k × V, per animal, read-out: Cl, rabbit parameter (converted)) was 3.13 mL/min and the “k12 (distribution rate constant compartment 1 to 2), population value” ([3]; i.v., popPK) was 3.666 h⁻¹. For the same compound, the “k21 (distribution rate constant compartment 2 to 1), population value” ([3]; i.v., popPK, no extract covariate) was 3.777 h⁻¹, the Vd ([3]; male, New Zealand White, rabbit, plasma, iv, popPK, read-out: V (volume of distribution of first compartment), population value) was 0.048 L/kg and the k el ([3]; male, New Zealand White, rabbit, plasma, iv, popPK, read-out: k (first-order elimination rate constant), population value (converted)) was 0.000534 s⁻¹. The “V, rabbit parameter” value ([3]; popPK individual parameters, per animal) was 0.096 L, the “V, human parameter (experimental b)” value ([4]; 70 kg, b exponent from the data) was 1.410 L and the “Cl, human parameter (theoretical b)” value ([4]; 70 kg, theoretical b 0.75) was 2.323 L/h. The “V, human parameter (theoretical b)” value ([4]; 70 kg, theoretical b 1.0) was 3.988 L, the “Cl, a coefficient of allometric scaling” value ([4]; Y = a × W^b, rats and rabbits) was 0.096 and the “Cl, b exponent of allometric scaling” value ([4]; Y = a × W^b, rats and rabbits) was 0.9. For the same compound, the “V, a coefficient of allometric scaling” value ([4]; Y = a × W^b, rats and rabbits) was 0.057, the “V, b exponent of allometric scaling” value ([4]; Y = a × W^b, rats and rabbits) was 0.8 and the clearance ([4]; human, 70 kg, b exponent from the data, read-out: Cl, human parameter (experimental b) (converted)) was 89.8 mL/min. The “Cl, rat parameter” value [5] was 0.031 L/h, the “V, rat parameter” value [5] was 0.024 L and the “Biopharmaceutical Classification System class” value [6] was “Class IV”.
